PubChem BioAssay AID248 (DTP/NCI, 2004)
“And” between values parts separate entries of the source, which are not always exact repeats. Equal entries are not always repeated. Inconclusive results and toxic doses are left out. No stated cut-off is given here; in the data, active means T/C of 150% or more; inactive means T/C below 125%.

System: L1210 leukemia ip in BDF1 mice, survival T/C
Test: NCI In Vivo Anticancer Drug Screen. Data for tumor model L1210 Leukemia (intraperitoneal) in B6D2F1 (BDF1) mice
Settings: higher = longer survival
How it was run: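 Mice bearing the transplanted tumor received compound or vehicle. Survival of the treated group was divided by that of the vehicle-treated control group to give the ratio.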

[1] = endpoint: mean survival time, dose: 12.5 mg/kg/injection, schedule: Q04DX002 (ip), vehicle: Klucel (hydroxypropylcellulose) (HPC)
[2] = endpoint: mean survival time, dose: 100.0 mg/kg/injection, schedule: Q01DX001 (ip), vehicle: saline
[3] = endpoint: mean survival time, dose: 200.0 mg/kg/injection, schedule: Q01DX001 (ip), vehicle: saline
[4] = endpoint: mean survival time, dose: 400.0 mg/kg/injection, schedule: Q01DX001 (ip), vehicle: saline
[5] = endpoint: mean survival time, dose: 100.0 mg/kg/injection, schedule: Q01DX001 (ip), vehicle: Klucel (hydroxypropylcellulose) (HPC)
[6] = endpoint: mean survival time, dose: 200.0 mg/kg/injection, schedule: Q01DX001 (ip), vehicle: Klucel (hydroxypropylcellulose) (HPC)
[7] = endpoint: mean survival time, dose: 100.0 mg/kg/injection, schedule: Q01DX009 (ip), vehicle: saline with Tween-80
[8] = endpoint: mean survival time, dose: 100.0 mg/kg/injection, schedule: Q04DX003 (ip), vehicle: saline with Tween-80
[9] = endpoint: mean survival time, dose: 200.0 mg/kg/injection, schedule: Q01DX009 (ip), vehicle: saline with Tween-80
[10] = endpoint: mean survival time, dose: 200.0 mg/kg/injection, schedule: Q04DX003 (ip), vehicle: saline with Tween-80
[11] = endpoint: mean survival time, dose: 400.0 mg/kg/injection, schedule: Q01DX009 (ip), vehicle: saline with Tween-80
[12] = endpoint: mean survival time, dose: 100.0 mg/kg/injection, schedule: Q04DX002 (ip), vehicle: saline with Tween-80
[13] = endpoint: mean survival time, dose: 100.0 mg/kg/injection, schedule: Q01DX009 (ip), vehicle: Klucel (hydroxypropylcellulose) (HPC)
[14] = endpoint: mean survival time, dose: 100.0 mg/kg/injection, schedule: Q04DX003 (ip), vehicle: Klucel (hydroxypropylcellulose) (HPC)
[15] = endpoint: mean survival time, dose: 200.0 mg/kg/injection, schedule: Q01DX009 (ip), vehicle: Klucel (hydroxypropylcellulose) (HPC)
[16] = endpoint: mean survival time, dose: 200.0 mg/kg/injection, schedule: Q04DX003 (ip), vehicle: Klucel (hydroxypropylcellulose) (HPC)
[17] = endpoint: mean survival time, dose: 400.0 mg/kg/injection, schedule: Q01DX009 (ip), vehicle: Klucel (hydroxypropylcellulose) (HPC)
[18] = endpoint: mean survival time, dose: 400.0 mg/kg/injection, schedule: Q04DX003 (ip), vehicle: Klucel (hydroxypropylcellulose) (HPC)
[19] = endpoint: mean survival time, dose: 25.0 mg/kg/injection, schedule: Q01DX009 (ip), vehicle: saline with Tween-80
[20] = endpoint: mean survival time, dose: 50.0 mg/kg/injection, schedule: Q01DX009 (ip), vehicle: saline with Tween-80
[21] = endpoint: mean survival time, dose: 100.0 mg/kg/injection, schedule: Q01DX001 (ip), vehicle: saline with Tween-80
[22] = endpoint: mean survival time, dose: 200.0 mg/kg/injection, schedule: Q01DX001 (ip), vehicle: saline with Tween-80
[23] = endpoint: mean survival time, dose: 400.0 mg/kg/injection, schedule: Q01DX001 (ip), vehicle: saline with Tween-80

Measured: T/C

COc1ccc(C[C@H](N)C(=O)NC2C(CO)OC(n3cnc4c(N(C)C)ncnc43)C2O)cc1 (stereo partly drawn)
inactive: endpoint: mean survival time, dose: 5.0 mg/kg/injection, schedule: Q01DX001 (ip), vehicle: saline 103 % of control | endpoint: mean survival time, dose: 9.94 mg/kg/injection, schedule: Q01DX Z (ip), vehicle: carboxymethylcellulose (CMC) 108 % of control | endpoint: mean survival time, dose: 10.0 mg/kg/injection, schedule: Q01DX001 (ip), vehicle: saline 97 % of control | endpoint: mean survival time, dose: 19.88 mg/kg/injection, schedule: Q01DX Z (ip), vehicle: carboxymethylcellulose (CMC) 117 % of control | endpoint: mean survival time, dose: 20.0 mg/kg/injection, schedule: Q01DX001 (ip), vehicle: saline 95 % of control | endpoint: mean survival time, dose: 39.75 mg/kg/injection, schedule: Q01DX Z (ip), vehicle: carboxymethylcellulose (CMC) 112 % of control | endpoint: mean survival time, dose: 40.0 mg/kg/injection, schedule: Q01DX001 (ip), vehicle: saline 110 % of control | endpoint: mean survival time, dose: 79.5 mg/kg/injection, schedule: Q01DX Z (ip), vehicle: carboxymethylcellulose (CMC) 113 % of control | endpoint: mean survival time, dose: 80.0 mg/kg/injection, schedule: Q01DX001 (ip), vehicle: saline 100 % of control | endpoint: median survival time, dose: 25.0 mg/kg/injection, schedule: Q04DX003 (ip), vehicle: saline 95 % of control | endpoint: median survival time, dose: 50.0 mg/kg/injection, schedule: Q04DX003 (ip), vehicle: saline 107 % of control | endpoint: median survival time, dose: 100.0 mg/kg/injection, schedule: Q04DX003 (ip), vehicle: saline 108 % of control | endpoint: median survival time, dose: 200.0 mg/kg/injection, schedule: Q04DX003 (ip), vehicle: saline 106 % of control

CC(C)(C)C(=O)C=C(C(F)(F)F)C(F)(F)F
inactive: endpoint: mean survival time, dose: 6.25 mg/kg/injection, schedule: Q01DX009 (ip), vehicle: saline 106 % of control | endpoint: mean survival time, dose: 6.25 mg/kg/injection, schedule: Q04DX003 (ip), vehicle: saline 100 % of control | endpoint: mean survival time, dose: 12.5 mg/kg/injection, schedule: Q01DX009 (ip), vehicle: saline 106 % of control | endpoint: mean survival time, dose: 12.5 mg/kg/injection, schedule: Q04DX003 (ip), vehicle: saline 97 % of control | endpoint: mean survival time, dose: 25.0 mg/kg/injection, schedule: Q01DX009 (ip), vehicle: saline 108 % of control | endpoint: mean survival time, dose: 25.0 mg/kg/injection, schedule: Q04DX003 (ip), vehicle: saline 105 % of control | endpoint: mean survival time, dose: 50.0 mg/kg/injection, schedule: Q04DX003 (ip), vehicle: saline 96 % of control and 105 % of control

Cn1ccnc1Oc1ccc(Cl)cc1
inactive: [1] 106 % of control | endpoint: mean survival time, dose: 50.0 mg/kg/injection, schedule: Q04DX002 (ip), vehicle: Klucel (hydroxypropylcellulose) (HPC) 100 % of control

Cn1cc[n+](C)c1
inactive: [2] 102 % of control | [3] 97 % of control | [4] 100 % of control

CCCCCCCCS(=O)(=O)CCO
inactive: endpoint: mean survival time, dose: 100.0 mg/kg/injection, schedule: Q01DX009 (ip), vehicle: carboxymethylcellulose (CMC) 93 % of control | endpoint: mean survival time, dose: 100.0 mg/kg/injection, schedule: Q04DX003 (ip), vehicle: carboxymethylcellulose (CMC) 106 % of control | endpoint: mean survival time, dose: 200.0 mg/kg/injection, schedule: Q01DX009 (ip), vehicle: carboxymethylcellulose (CMC) 90 % of control | endpoint: mean survival time, dose: 200.0 mg/kg/injection, schedule: Q04DX003 (ip), vehicle: carboxymethylcellulose (CMC) 101 % of control | endpoint: mean survival time, dose: 400.0 mg/kg/injection, schedule: Q01DX009 (ip), vehicle: carboxymethylcellulose (CMC) 95 % of control | endpoint: mean survival time, dose: 400.0 mg/kg/injection, schedule: Q04DX003 (ip), vehicle: carboxymethylcellulose (CMC) 106 % of control

COC(=O)C(CCC1CCCCN1)(c1ccccc1)c1ccccc1 (stereo not drawn)
inactive: endpoint: mean survival time, dose: 35.0 mg/kg/injection, schedule: Q01DX009 (ip), vehicle: saline 112 % of control and 119 % of control | endpoint: mean survival time, dose: 50.0 mg/kg/injection, schedule: Q01DX009 (ip), vehicle: saline 120 % of control | endpoint: mean survival time, dose: 110.0 mg/kg/injection, schedule: Q01DX009 (ip), vehicle: saline 96 % of control

COc1ccc2c(c1C)CCC13CC(C)C(CC21)OC3=O (stereo not drawn)
inactive: [5] 102 % of control | [6] 101 % of control | endpoint: mean survival time, dose: 400.0 mg/kg/injection, schedule: Q01DX001 (ip), vehicle: Klucel (hydroxypropylcellulose) (HPC) 109 % of control

CCOc1ccn(CC(=O)c2ccc(Cl)s2)c(=O)n1
inactive: [7] 93 % of control | [8] 100 % of control | [9] 90 % of control | [10] 100 % of control | [11] 86 % of control | endpoint: mean survival time, dose: 400.0 mg/kg/injection, schedule: Q04DX003 (ip), vehicle: saline with Tween-80 101 % of control

CCCCC1=Cc2cc3c(cc2C1N(C)C)OCO3 (stereo not drawn)
inactive: endpoint: mean survival time, dose: 6.25 mg/kg/injection, schedule: Q04DX002 (ip), vehicle: Klucel (hydroxypropylcellulose) (HPC) 102 % of control | [1] 99 % of control | endpoint: mean survival time, dose: 25.0 mg/kg/injection, schedule: Q04DX002 (ip), vehicle: Klucel (hydroxypropylcellulose) (HPC) 95 % of control and 105 % of control | endpoint: mean survival time, dose: 100.0 mg/kg/injection, schedule: Q04DX002 (ip), vehicle: Klucel (hydroxypropylcellulose) (HPC) 92 % of control

CC[N+](CC)(CC)CC(=O)c1ccc(Br)cc1
inactive: endpoint: mean survival time, dose: 25.0 mg/kg/injection, schedule: Q04DX002 (ip), vehicle: saline with Tween-80 97 % of control | endpoint: mean survival time, dose: 50.0 mg/kg/injection, schedule: Q04DX002 (ip), vehicle: saline with Tween-80 97 % of control | [12] 87 % of control and 92 % of control

CCOC(=O)CC(=Nc1ccccc1OC)C(=O)OCC
inactive: [13] 97 % of control | [14] 105 % of control | [15] 98 % of control | [16] 98 % of control | [17] 91 % of control | [18] 107 % of control

COC(=O)C1C(c2ccc(-c3ccccc3)cc2)N1C(C)C (stereo not drawn)
inactive: [14] 101 % of control | [16] 95 % of control | [18] 98 % of control

Cc1cc(-c2ccc(NC(=O)N(C)CCC#N)c(C)c2)ccc1NC(=O)N(C)CCC#N
inactive: endpoint: mean survival time, dose: 100.0 mg/kg/injection, schedule: Q01DX009 (ip), vehicle: other 88 % of control | endpoint: mean survival time, dose: 200.0 mg/kg/injection, schedule: Q01DX009 (ip), vehicle: other 97 % of control | endpoint: mean survival time, dose: 400.0 mg/kg/injection, schedule: Q01DX009 (ip), vehicle: other 100 % of control

O=C1c2cccc3cc([N+](=O)[O-])cc(c23)C(=O)N1O
inactive: [2] 101 % of control | [3] 97 % of control | [4] 107 % of control

O=C(C=C(C(F)(F)F)C(F)(F)F)c1ccc(-c2ccccc2)cc1
inactive: [19] 98 % of control | [20] 98 % of control | endpoint: mean survival time, dose: 50.0 mg/kg/injection, schedule: Q04DX003 (ip), vehicle: saline with Tween-80 92 % of control | [8] 87 % of control | [10] 86 % of control

O=C(COc1ccccc1)NC(=S)Nc1ccc(F)c([N+](=O)[O-])c1
inactive: [21] 113 % of control | [7] 100 % of control and 86 % of control | [12] 94 % of control and 119 % of control | [22] 98 % of control | [9] 99 % of control and 116 % of control | endpoint: mean survival time, dose: 200.0 mg/kg/injection, schedule: Q04DX002 (ip), vehicle: saline with Tween-80 102 % of control and 103 % of control | [23] 95 % of control | [11] 102 % of control | endpoint: mean survival time, dose: 400.0 mg/kg/injection, schedule: Q04DX002 (ip), vehicle: saline with Tween-80 104 % of control and 87 % of control

Cc1ccc(S(=O)(=O)OCC(O)C2OCOC3COCOC32)cc1 (stereo not drawn)
inactive: [5] 97 % of control | [6] 101 % of control

CCOC(=O)c1ccc(NCC#N)cc1
inactive: [19] 92 % of control | [20] 95 % of control | [21] 97 % of control | [7] 94 % of control | [22] 92 % of control | [9] 91 % of control | [23] 98 % of control | [11] 102 % of control

O=S1(=O)C(C(O)(c2ccccc2)c2ccccc2)CCC1C(O)(c1ccccc1)c1ccccc1 (stereo not drawn)
inactive: [13] 98 % of control | [14] 102 % of control | [15] 98 % of control | [16] 93 % of control | [17] 93 % of control | [18] 105 % of control

CCOC(=O)/C(C#N)=C1\C=C(NCc2ccccc2)CCC1
inactive: [2] 89 % of control | [3] 96 % of control | [4] 92 % of control
